Consider one compound from article PMC7006784, “The combination of salvianolic acid A with latamoxef completely protects mice against lethal pneumonia caused by methicillin-resistant Staphylococcus aureus” (Emerging Microbes & Infections, 2020).

The subject of test [1] is adhesion of S. aureus to fibrinogen. Briefly: Fibrinogen binding assay. The format is cell-based. The following applies: bovine fibrinogen coated plate, crystal violet. The method, then:
Overnight cultures of S. aureus were subcultured into fresh medium with or without Sal A and then grown until the OD600 reached 0.5. Then, 100 μl of the bacterial culture was transferred into each well of a polystyrene 96-well plate coated with 20 μg/ml bovine fibrinogen and incubated for 2 h at 37°C. The cell suspension was discarded, and the wells were rinsed twice with PBS. Then, 25% formaldehyde was added and incubated for 30 min, and the plate was washed three times and stained with crystal violet dye (12.5 g/l). The binding of S. aureus to fibrinogen was quantitated as described previously. The data are presented as the mean ± SEM from three separate experiments.

The subject of another test is S. aureus biofilm. The test can be described thus: Biofilm formation assay. Type of test: cell-based. To be noted: Staphylococcus aureus, 18 h, read-out: inhibition of biofilm formation compared with the untreated group. As for the experimental part: Overnight cultures of S. aureus were diluted 1:100 in BHI media with or without Sal A to an OD600 of 0.6. Then, 5 µl of the bacterial culture was added to 195 µl BHI media with or without Sal A in a 96-well plate. The plate was incubated at 37°C for 18 h to form a biofilm, which was then quantitated as described previously.

The subject of test [2] is S. aureus protein A (SpA). Briefly: SpA-related fluorescence analysis (confocal microscopy). The format is cell-based. To be noted: 256 μg/ml, FITC-labelled IgG. The method, then: An overnight culture of S. aureus was diluted 1:100 in BHI broth with or without Sal A and grown until the OD600 reached 1.0. After centrifugation at 2,500 × g for 10 min, the bacterial pellets were fixed with 4% formaldehyde solution for 30 min. After washing three times with PBS, 5% BSA was added for blocking, and the bacteria were incubated for 20 min. Then, the bacteria were rinsed with PBS and resuspended in PBS containing FITC-labelled rabbit anti-goat-IgG (Sigma) at a dilution of 1:50 and incubated at 37°C for 3 h. After washing three times with PBS, the bacteria were placed onto poly-lysine-coated glass slides, and the SpA on the cell surface was visualized by confocal microscopy (Zeiss, LSM 880).

The target in a further test is T1, SrtA (Staphylococcus aureus, UniProt Q2FV99).
T1 construct: The gene encoding SrtA (lacking the N-terminal transmembrane domain (N1–59)); made in house
The test can be described thus: Biolayer interferometry assay. Type of test: binding, S. aureus. The method, then:
The kinetics of the binding of Sal A to SrtA were determined by a biolayer interferometry (BLI) assay using the Octet RED96 system (ForteBio, Inc., Menlo Park, CA) as described previously. Ni-NTA sensors were used to bind the His-tag SrtA protein. The assay buffer used was PBS containing 0.1% bovine serum albumin and 0.02% Tween-20, pH 6.5. Before the assay was performed, the Ni-NTA sensors were pre-wetted in assay buffer for 10 min, and then the Ni-NTA sensors were flushed with buffer for 60 s to generate the baseline. SrtA was immobilized on the surface of the sensor tip by incubating it in […] protein solution for 3600 s. The excess protein was removed by washing the sensor with buffer for 300 s. Subsequently, the sensor was exposed to a cycle of 60 s for the baseline step, 200 s for the association step and 100 s for the dissociation step in different concentrations of Sal A solution (250, 125, 62.5, 31.25 and 15.625 μM). The binding of the sensor to protein without the loading of Sal A served as a control. The data were processed using the double reference subtraction method in Forte Bio analysis software (v6.4).
(In general: BLI is a label-free optical method that tracks binding on a fibre tip over time.)

Another test concerns T2, A104L-SrtA.
T2 construct: The gene encoding SrtA (lacking the N-terminal transmembrane domain (N1–59)); 6xHis (N); made in house
The test can be described thus: Fluorescence quenching assay, A104L-SrtA. The following applies: fluorescence spectroscopy quenching. The format is binding, S. aureus. As for the experimental part: (§1) The fluorescence quenching assay was performed as previously described. Briefly, purified SrtA and mutant protein were diluted to 500 ng/ml with PBS. A total of 2.5 ml diluted protein solution was mixed with Sal A at different concentrations ranging from 0 to 4.5 μg. After incubation for 10 min, the fluorescence spectra of the mixed solutions were measured using a fluorescence spectrophotometer (RF5301, Japan). For the fluorescence measurement, the excitation and emission slits were set at 5.0 nm, the excitation wavelength was set at 280 nm, and fluorescence emission spectra in the range of 290–500 nm were scanned; the fluorescence intensity at 340 nm was recorded. All assays were performed in triplicate.

A further test has as its system T3, I182A-SrtA.
T3 construct: The gene encoding SrtA (lacking the N-terminal transmembrane domain (N1–59)); 6xHis (N); made in house
The test can be described thus: Fluorescence quenching assay, I182A-SrtA. The format is binding, S. aureus. To be noted: fluorescence spectroscopy quenching. The method, then: as §1

The test system of another test is S. aureus USA300. The test can be described thus: Pneumonia model, bacterial load and histopathology of the lungs. To be noted: mice, 1 × 10^9 CFU i.n., 24 h. The format is in vivo, C57BL/6J mice. The method, then: The animal experiments were performed using 6- to 8-week-old female C57BL/6J mice obtained from the Experimental Animal Center of Jilin University and conducted according to the guidelines of the Animal Care and Use Committee of Jilin University. The mouse S. aureus pneumonia model was generated as described previously. Briefly, the mice were anaesthetized with ether and inoculated with 30 μl bacterial resuspension via the left nare. The mice were then held upright to allow the bacteria to be inhaled into the lungs. For the survival assessment, groups of 10 mice were challenged with 2 × 10^9 CFU S. aureus. One hour after intranasal inoculation, the mice were subcutaneously injected with 100 mg/kg of Sal A, 75 mg/kg of latamoxef or 100 mg/kg of Sal A plus 75 mg/kg of latamoxef at 12 h intervals, and survival was assessed for 96 h. For the bacterial load, histopathological, and bronchoalveolar lavage fluid (BALF) experiments, mice were inoculated with 1 × 10^9 CFU S. aureus. The mice were then given a subcutaneous injection of 100 mg/kg Sal A, 75 mg/kg latamoxef or a combination of 100 mg/kg Sal A and 75 mg/kg every 12 h. After 24 h, the left lung of each anaesthetized mouse was aseptically excised and homogenized, and the CFU was determined by serial dilutions. The right lungs from each group of mice were excised for histopathological analysis, and the samples were fixed in 10% formalin and stained with haematoxylin and eosin (H&E).

Marks after values point to notes of the source that are not given here.

T1 sequence (Q2FV99 60-206): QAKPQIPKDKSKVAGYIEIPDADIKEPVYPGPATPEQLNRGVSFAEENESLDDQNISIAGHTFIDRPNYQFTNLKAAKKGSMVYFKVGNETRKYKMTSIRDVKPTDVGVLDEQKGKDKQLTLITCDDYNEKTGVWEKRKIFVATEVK

Usually inhibition stands for the relative decrease from the control value, in per cent. For orientation: Kd means the constant that tells how readily two partners part at equilibrium. Low readings indicate tighter binding, high ones weaker binding. Broadly, the koff is the rate constant with which the complex falls apart. High values mean fast dissociation, low ones slow dissociation. By kon is commonly meant the rate constant with which the complex forms. A high value points to fast association. Take `O=C(/C=C/c1ccc(O)c(O)c1/C=C/c1ccc(O)c(O)c1)O[C@H](Cc1ccc(O)c(O)c1)C(=O)O` [Sal A, (2R)-3-(3,4-Dihydroxyphenyl)-2-[(E)-3-[2-[(E)-2-(3,4-dihydroxyphenyl)ethenyl]-3,4-dihydroxyphenyl]prop-2-enoyl]oxypropanoic acid]: the “adhesion of S. aureus to fibrinogen” value in test [1] is listed as “inhibited the adhesion of S. aureus to fibrinogen in a dose-dependent manner”. Also, the inhibition at 256 µg/mL in the test on S. aureus biofilm is 33.1%. Also, in test [2], the “level of green fluorescence (SpA on surface) compared with the WT group” value was “considerably reduced”. On SrtA, binding was characterised by a dissociation constant (Kd) of 21.5 µM, the koff worked out at 0.0138 s⁻¹ and the kon came out at 582 M⁻¹ s⁻¹. Moreover, the KA in the test with A104L-SrtA is 2.62 (1 × 10^4) l/mol. For the same compound, the KA with I182A-SrtA is recorded as 1.03 (1 × 10^4) l/mol. Also, the “viable MRSA loads in the lungs in comparison with the control” value in the test on S. aureus USA300 (s.c. 100 mg/kg Sal A and/or 75 mg/kg latamoxef every 12 h) is “significantly decreased”. Further, the “pulmonary inflammation (histopathology of the lungs)” value in the test with S. aureus USA300 (s.c. 100 mg/kg Sal A and/or 75 mg/kg latamoxef, H&E) is “alleviated”.
